In patent publication US20220184020A1, “Polyphenols as Modulators of Platelet Function” (Northeastern University, priority 2019, published 2022):

Columns and labels:
platelets [1] = test: Platelet alpha granule secretion (P-selectin surface expression); type: cell-based, human; conditions: in response to U46619; RA pre-treatment 1 hour
Description: (§1) To validate the predictive power of the developed framework, direct experimental evidence of the predicted mechanistic role of Rosmarinic acid (RA) in VD was sought. […] Therefore, whether RA influenced platelet activation in vitro was evaluated. As platelets can be stimulated through different activation pathways, RA effects can, in principle, occur in any of them. To test these different possibilities, platelets were pretreated with RA and then activated with: 1) glycoprotein VI by collagen or collagen-related peptide (Collagen/CRPXL); 2) protease-activated receptors-1,4 by thrombin receptor activator peptide-6 (TRAP-6); 3) prostanoid thromboxane receptor by the thromboxane A2 analogue (U46619); and 4) P2Y1/12 receptor stimulation by adenosine diphosphate (ADP). When the network distance between each stimulant receptor and the RA-VD-platelet module (FIG. 11A) was compared, it was observed that the receptors for Collagen/CRPXL, TRAP-6, and U46619 are closer than the random expectation, while the receptor for ADP is more distant (FIG. 11B). It is expected that platelets would be most affected by RA when treated with stimulants whose receptors are most proximal to the RA-VD-platelet module, i.e. Collagen/CRPXL, TRAP-6, and U46619. […] Percent-positive cells were determined by gating on fluorescence intensity compared to unstimulated samples.

MCF7 cell line = conditions: MCF7 after treatment with RA; versus all other genes; cited from earlier work
platelets [2] = test: Platelet functions after ADP stimulation (control, distant receptor); type: cell-based, human; conditions: stimulant whose receptor is distant from the RA-VD-module (ADP)
Description: To validate the predictive power of the developed framework, direct experimental evidence of the predicted mechanistic role of Rosmarinic acid (RA) in VD was sought. […] Therefore, whether RA influenced platelet activation in vitro was evaluated. As platelets can be stimulated through different activation pathways, RA effects can, in principle, occur in any of them. To test these different possibilities, platelets were pretreated with RA and then activated with: 1) glycoprotein VI by collagen or collagen-related peptide (Collagen/CRPXL); 2) protease-activated receptors-1,4 by thrombin receptor activator peptide-6 (TRAP-6); 3) prostanoid thromboxane receptor by the thromboxane A2 analogue (U46619); and 4) P2Y1/12 receptor stimulation by adenosine diphosphate (ADP). […] Platelet aggregation was measured by turbidimetric aggregometry. […] Platelet aggregation was monitored for 6 minutes at 37° C. with a stir speed of 1000 rpm and the maximum extend of aggregation recorded using AGGRO/LINK®8 software. In some cases, dense granule release was simultaneously recorded by supplementing samples with Chrono-Lume® (Chrono-Log®, 395) according to the manufacturer's instructions. […] Percent-positive cells were determined by gating on fluorescence intensity compared to unstimulated samples.

platelets [3] = test: Integrin αIIbβ3 activation (fibrinogen binding); type: cell-based, human; conditions: in response to U46619; RA pre-treatment 1 hour
Description: as §1

A549 = A549 after treatment with RA; versus all other genes; cited from earlier work
[4] = rat models of ischemia/reperfusion injury; cited from earlier work

For `O=C(/C=C/c1ccc(O)c(O)c1)O[C@H](Cc1ccc(O)c(O)c1)C(=O)O` [rosmarinic acid], the alpha granule secretion (platelets [1]) is given as “dampened”, the “perturbation scores for genes directly regulated by NFE2L2” value (MCF7 cell line) is given as “higher perturbation scores” and the platelet functions (platelets [2]) is given as “did not affect”. For the same compound, the “integrin αIIbβ3 activation” value (platelets [3]) was “dampened”, the “perturbation scores for genes directly regulated by NFE2L2” value (A549) was “higher perturbation scores” and the cardiac function [4] was “restore cardiac function”.
